Test results: US9260376B2, “Compounds for use in the treatment of immune related inflammatory disease” (VENANTIUS LIMITED, priority 2011, dated 2016)
Marks after values point to notes of the source that are not given here.

Experiments:
5% DSS murine colitis [1] = experiment: Acute murine 5% DSS colitis model, Experiment 1; assay type: in vivo; settings: for DAI at day 7: 10 mg/kg daily for 7 days, vehicle 9.3±0.51; for DAI on the day of autopsy versus vehicle controls: compound 6 3-30 mg/kg at each dose level; for colon pathology (histology scores) relative to vehicle: compound 6 at both 10 and 30 mg/Kg, prednisolone 5 mg/Kg; for colon IL1β level / colon IL6 level / colon TNFα level: day 7; for colon IL1β level: DSS-elevated 0.744±0.076 ng/mg; for colon IL6 level: DSS-elevated 1.057±0.1784 ng/mg; for colon TNFα level: DSS-elevated 1.478±0.378 ng/mg
Excerpt: The study is widely used as a model for studying the pathogenesis of UC and also for screening new therapeutic interventions for the treatment of UC.
In these studies, an acute colitis model was used, with 5% DSS administered in the drinking water of BALB/c mice. This dosage regime induces severe acute colitis, by days 7-8 mice had overt rectal bleeding and marked weight loss; unless sacrificed beforehand, all mice would have died by days 10-12.
Specific Pathogen-Free BALB/c mice, 6-8 weeks of age, were obtained from a commercial supplier (Harlan UK). Mice were fed irradiated diet and housed in individually ventilated cages (Tecniplast UK) under positive pressure.
DSS (5%) was dissolved in drinking water. Compounds were administered orally at a dose of 10 mg/kg or 30 mg/kg on days 0-7, and mice were culled on day 8 or day 9, depending on the severity of the disease. The mice were checked each day for morbidity and the weight of individual mice was recorded. Induction of colitis was determined upon autopsy, length of colon and histology. Colons were recovered and stored at −20° C. for immunological analysis. All of the compounds and experimental groups are randomly alphabetically labelled. Throughout experiments all data recording was performed in a blind manner. The codes on boxes/groups were not broken until after the data was analysed i.e. boxes labelled A, B, C etc were identified as untreated, DSS-treated, or DSS+compound-treated.
To quantify the extent of colitis, a disease activity index (DAI) was determined based on weight loss, faecal blood and stool consistency. A score was given for each parameter, with the sum of the scores used as the DAI. For each treatment group n=8.
All compounds were prepared for oral gavage (0.1 mL per os (p.o.) per 10 g body weight) as a suspension in 0.5% carboxymethyl cellulose/2% Tween 80, at a dose of 3-30 mg/Kg.

[2] = Partition coefficient (log P), HPLC method; assay type: physicochemical; settings: reverse phase C18 HPLC; for Acid Log10 POW: acidic pH; for Basic Log10 POW: alkaline pH; for Neutral Log10 POW: neutral pH
Excerpt: The partition coefficient of compound 5 and related analogous compounds was investigated using the HPLC method (reverse phase C18 HPLC column) at neutral, acidic and alkaline pH.

[3] = Solubility in water and buffers; assay type: physicochemical
Method: The sodium salt, potassium salt, calcium salt, α-methylbenzylamine salt and N-Methyl-(D)-Glucamine salt were synthesised. The sodium and calcium salt were unsuccessful. The three salts of compound 5, named potassium salt, α-methylbenzylamine salt and N-Methyl-(D)-Glucamine salt were used for solubility and partition coefficient (log P) studies.
The solubility of the four compounds were determined: […]

[4] = system: chronic colitis in IL10-/- mice; experiment: Chronic IL10-/- colitis model; assay type: in vivo, IL10-/- BALB/c strain mice; settings: 300 mg/kg/week oral, MWF
Method: FIG. 15: Is a group showing weight loss in IL10^−−/−− mice treated with vehicle or compound 6. Mice were administered compound 6 (300 mg/kg/week) or vehicle orally on a Monday/Wednesday/Friday (MWF) dosing schedule. Mice were ˜4 weeks of age at start of experiment and were treated for 9 weeks. Mice were weighed weekly and data are presented as Mean±SEM from 9-12 mice per group. Mice were monitored for overt disease, rectal prolapse, and moribund animals were humanely killed;
Mice with a deletion in the IL10^−−/−− gene spontaneously develop chronic colitis, with the age of onset and the severity of the disease being dependent on background mouse strain and the conditions in which the animals are housed. The onset of colitis in IL10^−−/−− mice housed under the conditions used in this study was also strain dependent, with an earlier onset and greater severity, in terms of mortality, in BALB/c strain mice relative to C57BL/6 strain animals. In this experiment, animals received oral treatment on a MWF regime over 9 weeks. Initially, both groups of mice progressively gain weight (FIG. 15). […] By week 9 animals had marked weight loss, with one moribund animal humanely killed on day 60 in each group. As other mice were losing weight and developing clinical symptoms of disease, both groups were culled at week 9 (day 63) and analysed.

5% DSS murine colitis [5] = experiment: DSS murine colitis, Experiment 2 (Method 2); assay type: in vivo, BDF1 male mice; settings: 10 ml/kg oral gavage daily day 0-6, 5-ASA 100 mg/kg; for DAI at day 7 in comparison with vehicle: 31 at 2 mg/ml, 47 at 4 mg/ml
Method: A total of 90 BDF1 (H. pylori-free, murine norovirus-free) male mice (Harlan Laboratories, UK) were used in the study. Animals were 8-10 weeks old on supply and used at 10-12 weeks of age. All mice were held in individually ventilated cages (IVCs) in an SPF (Specific Pathogen Free) barrier unit. The animals were identified by numbered cages and by ear punches.
DSS (MP Biomedicals 0216011090, lot# M2709) was prepared as a 5% (w/v) solution in the drinking water and made fresh daily on days 0 to 6 inclusive. DSS was administered from day 0 to day 7.
Test items were stored at −20° C. until the initiation of the study. Each test item was formulated as a homogenous suspension in 0.5% carboxymethyl cellulose (CMC, Sigma C4888) in sterile water (Sigma W3500, lot# RNBC1419), using an Ultraturax homogeniser, on study day −1. Compound 31 was formulated at 2 mg/ml and 47 was formulated at 4 mg/ml. After formulation the test item and the vehicle stocks anonymised with a letter code. All solutions were stored at 4° C. during the study, with 3.8 ml of each suspension being dispensed daily. Test items were administered by oral gavage, daily at 09.00 hrs, at 10 ml/kg, from study day 0 to study day 6.
5-ASA (5-Aminosalicylic acid, Sigma A3537, lot#051M1878V) was aliquoted into preweighed amounts between 71 and 84 mg. Like test item suspensions, these aliquots were anonymised by a letter code. Individual aliquots were formulated as a 10 mg/ml suspension in 0.5% CMC (Sigma C4888) in sterile water (Sigma W3500, lot# RNBC1419) on each day of dosing. 5-ASA was administered by oral gavage, daily at 09.00 hrs, at 10 ml/kg to give a dose of 100 mg/kg, from study day 0 to study day 6. 2.5 Clinical examinations
Any animal was culled if the weight loss was greater than 20%. Animal well-being was monitored daily. Once daily from day 0 until the end of the study, all mice were weighed and assessed for stool consistency, and the presence of overt blood in the stool or around the anus according to the criteria in 2.1
At necropsy, observation of stool in the large bowel was used to supplement in-life observation. […]

[6] = compound 6 10 and 30 mg/kg groups, Prednisolone 5 mg/kg
[7] = compound 6 30 mg/kg, Prednisolone 5 mg/kg

SMILES: O=C(O)c1ccc(C[C@]2(C3=Cc4ccccc4C3)Cc3ccccc3[C@H]2O)cc1 [Compound 5, 4-(((1S,2R)-1-hydroxy-2,3-dihydro-1H,1′H-2,2′-biinden-2-yl)methyl)benzoic acid]
- DAI at day 7 (5% DSS murine colitis [1]): no significant (P>0.05) effect
- activity in 5% DSS murine colitis model (5% DSS murine colitis [1]; 30 mg/kg p.o. daily for 7 days): highly active
- Acid Log10 POW [2]: 3.9
- Basic Log10 POW [2]: 3.7
- Neutral Log10 POW [2]: 3.7

SMILES: O=C(O)c1ccc(C[C@]2(C3=Cc4ccccc4C3)Cc3ccccc3[C@@H]2O)cc1 (single isomer, unassigned) [Compound 3]
- DAI at day 6 versus vehicle (5% DSS murine colitis [1]; 30 mg/kg p.o.): no statistical (P>0.05) difference
- activity in 5% DSS murine colitis model (5% DSS murine colitis [1]; 30 mg/kg p.o. daily for 7 days): minimal activity

SMILES: O=C(O)c1ccc(C[C@@]2(C3=Cc4ccccc4C3)Cc3ccccc3[C@H]2O)cc1 (single isomer, unassigned) [Compound 2]
- activity in 5% DSS murine colitis model (5% DSS murine colitis [1]; 30 mg/kg p.o. daily for 7 days): highly active

SMILES: C[C@]12C=CC(=O)C=C1CC[C@@H]1[C@@H]2[C@@H](O)C[C@@]2(C)[C@H]1CC[C@]2(O)C(=O)CO [Prednisolone, reference compound]
- DAI on the day of autopsy versus vehicle controls (5% DSS murine colitis [1]; Prednisolone 5 mg/kg): significantly (P<0.01; ANOVA; Dunnett Multiple Comparison Test) reduced DAI scores
- inhibition of colon shortening (colon length) versus vehicle, day 7 (5% DSS murine colitis [1]; [6]): did have a significant effect
- colon pathology (histology scores) relative to vehicle (5% DSS murine colitis [1]): no significant improvement
- colon IL1β level (5% DSS murine colitis [1]; [7]): reduced (p<0.05)
- colon IL6 level (5% DSS murine colitis [1]; [7]): reduced (p<0.05)
- colon TNFα level (5% DSS murine colitis [1]; [7]): reduced (p<0.05)

SMILES: O=C(O)c1ccc(C[C@@]2(C3=Cc4ccccc4C3)Cc3ccccc3[C@@H]2O)cc1 [Compound 4, 4-(((1R,2S)-1-hydroxy-2,3-dihydro-1H,1′H-2,2′-biinden-2-yl)methyl)benzoic acid]
- activity in 5% DSS murine colitis model (5% DSS murine colitis [1]; 30 mg/kg p.o. daily for 7 days): almost devoid of activity
- disease activity index (DAI) at day 7 (5% DSS murine colitis [1]; 30 mg/kg p.o. daily for 7 days, vehicle controls 9.0±0.53): without activity

SMILES: CNCC(O)C(O)C(O)C(O)CO.O=C(O)c1ccc(C[C@]2(C3=Cc4ccccc4C3)Cc3ccccc3[C@H]2O)cc1 [Compound 7, 6-(Methylamino)hexane-1,2,3,4,5-pentanol 4-(((1S,2R)-1-hydroxy-2,3-dihydro-1H,1′H-2,2′-biinden-2-yl)methyl)benzoate]
- DAI at day 7 (5% DSS murine colitis [1]): no significant (P>0.05) effect
- Acid Log10 POW [2]: 3.8
- Basic Log10 POW [2]: 3.5
- Neutral Log10 POW [2]: 3.5
- solubility, Milli-RO H20 ([3]; Milli-RO water, listed as Compound 5 N-Methyl-D-Glucamine salt): >60,000* μg/mL
- solubility, pH 4.0 Buffer ([3]; pH 4.0 buffer): 0.14 μg/mL
- solubility, pH 7.0 Buffer ([3]; pH 7.0 buffer, listed as Compound 5 N-Methyl-D-Glucamine salt): >60,000* μg/mL
- solubility, pH 9.0 Buffer ([3]; pH 9.0 buffer, listed as Compound 5 N-Methyl-D-Glucamine salt): >60,000* μg/mL

SMILES: O=C(O)c1ccc(C[C@@]2(C3=Cc4ccccc4C3)Cc3ccccc3[C@H]2O)cc1 [Compound 6, 6-(Methylamino)hexane-1,2,3,4,5-pentanol 4-(((1S,2S)-1-hydroxy-2,3-dihydro-1H,1′H-2,2′-biinden-2-yl)methyl)benzoate]
- survival over the 9 weeks, Kaplan-Meier analysis versus vehicle [4]: no statistical difference in survival
- weight gain ([4]; vehicle stopped gaining weight from week 5): maintained weight gain until week 8
- Serum Amyloid A (SAA) levels relative to vehicle ([4]; week 9): significantly (P<0.05; Student's t-test) reduced
- extent of colon pathology (histology score) relative to vehicle ([4]; week 9): significantly reduced
- inhibition of colon shortening (colon length) versus vehicle, day 7 (5% DSS murine colitis [1]; 3 mg/kg): did not have a significant effect
- therapeutic efficacy in the DSS model (5% DSS murine colitis [1]; compound 6 30 mg/Kg versus prednisolone 5 mg/Kg): comparable, or better, efficacy relative to prednisolone
- colon length compared with Prednisolone, day 7 (5% DSS murine colitis [1]; compound 6 30 mg/kg, P<0.05): significantly better than Prednisolone
- DAI on the day of autopsy versus vehicle controls (5% DSS murine colitis [1]; Prednisolone 5 mg/kg): significantly (P<0.05-P<0.01) lower DAI than vehicle controls
- inhibition of colon shortening (colon length) versus vehicle, day 7 (5% DSS murine colitis [1]; [6]): did have a significant effect
- colon pathology (histology scores) relative to vehicle (5% DSS murine colitis [1]): dose-dependent and highly statistically significant reduction
- colon IL1β level (5% DSS murine colitis [1]; [7]): significant (P<0.05, 30 mg/kg) and dose-dependant reduction
- colon IL6 level (5% DSS murine colitis [1]; [7]): significant (P<0.05, 30 mg/kg) and dose-dependant reduction
- colon TNFα level (5% DSS murine colitis [1]; [7]): significant (P<0.05, 30 mg/kg) and dose-dependant reduction
- overt reactions in mice (5% DSS murine colitis [1]; oral daily for 7 days, 3, 10 and 30 mg/Kg): no overt reactions
- Acid Log10 POW [2]: 2.6
- Basic Log10 POW [2]: 4.3
- Neutral Log10 POW [2]: 3.5

SMILES: NCC(=O)O[C@@H]1c2ccccc2C[C@@]1(Cc1ccc(C(=O)O)cc1)C1=Cc2ccccc2C1 [Compound 31, 4-{[(1′S,2′S)-1′-(glycyloxy)-1′,3′-dihydro-1H,2′H-2,2′-biinden-2′-yl]methyl}benzoic acid]
- DAI at day 7 in comparison with vehicle (5% DSS murine colitis [5]): reduced DAI comparable or equal to 5ASA

SMILES: O=C(Nc1ccc(O)c(C(=O)O)c1)c1ccc(C[C@@]2(C3=Cc4ccccc4C3)Cc3ccccc3[C@H]2O)cc1 [Compound 47, 2-hydroxy-5-(4-(((1S,2S)-1-hydroxy-2,3-dihydro-1H,1′H-[2,2′-biinden]-2-yl)methyl)benzamido)benzoic acid]
- DAI at day 7 in comparison with vehicle (5% DSS murine colitis [5]): reduced DAI comparable or equal to 5ASA
- loss of body weight at day 7 in comparison with vehicle control (5% DSS murine colitis [5]; 47 formulated at 4 mg/ml): does not result in an increase in loss of body weight
